Tests used:
barnyardgrass [1] = assay: Test B pre-/postemergence herbicide test; format: in vivo, Echinochloa crus-galli
Method in brief: (§1)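 Seeds were planted and treated preemergence with compounds formulated in a non-phytotoxic solvent mixture containing surfactant, while plants at the 1- to 4-leaf stage (2 to 18 cm) received postemergence sprays. Flooded paddy plants were grown to the 2-leaf stage. After 13 to 15 days in a greenhouse, injury was visually rated 0–100 against untreated controls.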

Surinam grass = assay: Test B pre-/postemergence herbicide test; format: in vivo, Urochloa decumbens
Method in brief: (§2)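 Herbicidal effect was judged by eye on a 0–100 scale after plants stood 13 to 15 days in the greenhouse following pre- or postemergence treatment with surfactant-containing formulations.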

cocklebur = assay: Test B pre-/postemergence herbicide test; format: in vivo, Xanthium strumarium
Method in brief: as §1

corn = assay: Test B pre-/postemergence herbicide test; format: in vivo, Zea mays
Method in brief: as §2

large crabgrass = assay: Test B pre-/postemergence herbicide test; format: in vivo, Digitaria sanguinalis
Method in brief: as §2

giant foxtail = assay: Test B pre-/postemergence herbicide test; format: in vivo, Setaria faberi
Method in brief: as §2

lambsquarters = assay: Test B pre-/postemergence herbicide test; format: in vivo, Chenopodium album
Method in brief: as §2

morningglory = assay: Test B pre-/postemergence herbicide test; format: in vivo, Ipomoea coccinea
Method in brief: as §1

pigweed = assay: Test B pre-/postemergence herbicide test; format: in vivo, Amaranthus retroflexus
Method in brief: as §2

velvetleaf = assay: Test B pre-/postemergence herbicide test; format: in vivo, Abutilon theophrasti
Method in brief: as §2

blackgrass = assay: Test B postemergence herbicide test; format: in vivo, Alopecurus myosuroides
Method in brief: (§3)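 Postemergence plants were sprayed with formulated test chemicals at 2 to 18 cm height (1- to 4-leaf stage); paddy species were grown to the 2-leaf stage. After 13 to 15 days in a greenhouse, injury was rated visually against untreated controls on a 0–100 scale (0 = no effect, 100 = complete control).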

wheat = assay: Test B postemergence herbicide test; format: in vivo, Triticum aestivum; parameters: key to Wheat plant response rating: 0 = no effect, 100 = complete control
Method in brief: as §3

wild oat = assay: Test B postemergence herbicide test; format: in vivo, Avena fatua
Method in brief: as §3

rice = assay: Test B flooded paddy test; format: in vivo, Oryza sativa; conditions: scale 0 to 100 (0 no effect, 100 complete control)
Method in brief: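 Treated at 2-leaf (paddy) or 1–4-leaf, 2–18 cm (postemergence); greenhouse 13–15 d; visual score vs control, 0 none to 100 complete control; dash = not tested.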

[2] = test system: small flower umbrella sedge; assay: Test B flooded paddy test; format: in vivo, Cyperus difformis; conditions: scale 0 to 100 (0 no effect, 100 complete control)
Method in brief: as §3

ducksalad = assay: Test B flooded paddy test; format: in vivo, Heteranthera limosa; conditions: scale 0 to 100 (0 no effect, 100 complete control)
Method in brief: as §3

barnyardgrass [3] = assay: Test B flooded paddy test; format: in vivo, Echinochloa crus-galli; conditions: scale 0 to 100 (0 no effect, 100 complete control)
Method in brief: as §3

[4] = Postemergence, 125 g ai/ha, scale 0 (no effect) to 100 (complete control)
[5] = Postemergence, 500 g ai/ha, visual rating after 13 to 15 days, scale 0 (no effect) to 100 (complete control)
[6] = Preemergence, 500 g ai/ha, scale 0 to 100
[7] = preemergence, 125 g ai/ha, 0 to 100 scale, 0 is no effect, 100 is complete control
[8] = 1000 g ai/ha, visual rating, 13 to 15 days
[9] = Postemergence, 250 g ai/ha, scale 0 (no effect) to 100 (complete control)
[10] = postemergence, 62 g ai/ha, scale 0 to 100
[11] = Postemergence, 500 g ai/ha, scale 0 (no effect) to 100 (complete control)
[12] = postemergence, 125 g ai/ha, scale 0 to 100
[13] = 500 g ai/ha, scale 0 to 100, 0 no effect, 100 complete control, preemergence
[14] = 125 g ai/ha, 0 is no effect, 100 is complete control, preemergence

In the case of `C=Cn1nc(C(C)(C)C)cc1C(=O)Nc1cccc(C(=O)NCC(F)(F)F)c1` [Compound 37], the “Barnyardgrass plant response rating” value (barnyardgrass [1]; [4]) is reported as 20, the “Plant response rating, Barnyardgrass” value (barnyardgrass [1]; [5]) is reported as 20 and the “Barnyardgrass plant response rating” value (barnyardgrass [1]; [6]) is reported as 60. For the same compound, the “Plant response rating, Surinam Grass” value (Surinam grass; [5]) was 20, the “Surinam Grass plant response rating” value (Surinam grass; [6]) was 40 and the “Plant response rating, Surinam Grass” value (Surinam grass; [7]) was 10. For the same compound, the “Cocklebur plant response rating” value (cocklebur; [4]) was 60, the “Plant response rating, Cocklebur” value (cocklebur; [5]) was 80 and the “Cocklebur plant response rating” value (cocklebur; [6]) was 0. The “Corn plant response rating” value (corn; [6]) was 10, the “Crabgrass, Large plant response rating” value (large crabgrass; [4]) was 10 and the “Plant response rating, Crabgrass, Large” value (large crabgrass; [5]) was 20. For the same compound, the “Crabgrass, Large plant response rating” value (large crabgrass; [6]) was 90, the “Foxtail, Giant plant response rating” value (giant foxtail; [4]) was 20 and the “Plant response rating, Foxtail, Giant” value (giant foxtail; [5]) was 20. The “Foxtail, Giant plant response rating” value (giant foxtail; [6]) was 60, the “Plant response rating, Foxtail, Giant” value (giant foxtail; [7]) was 20 and the “Lambsquarters plant response rating” value (lambsquarters; [4]) was 80. For the same compound, the “Plant response rating, Lambsquarters” value (lambsquarters; [5]) was 90, the “Lambsquarters plant response rating” value (lambsquarters; [6]) was 100 and the “Plant response rating, Lambsquarters” value (lambsquarters; [7]) was 10. For the same compound, the “Morningglory plant response rating” value (morningglory; [6]) was 0, the “Plant response rating, Morningglory” value (morningglory; [7]) was 0 and the “Plant response rating, Pigweed” value (pigweed; [5]) was 90. The “Pigweed plant response rating” value (pigweed; [6]) was 100, the “Plant response rating, Pigweed” value (pigweed; [7]) was 80 and the “Plant response rating, Velvetleaf” value (velvetleaf; [5]) was 40. For the same compound, the “Velvetleaf plant response rating” value (velvetleaf; [6]) was 20, the “Plant response rating, Velvetleaf” value (velvetleaf; [7]) was 20 and the “Blackgrass plant response rating” value (blackgrass; [4]) was 10. For the same compound, the “Plant response rating, Blackgrass” value (blackgrass; [5]) was 10, the “Plant response rating, Wheat” value (wheat; [5]) was 20 and the “Oat, Wild plant response rating” value (wild oat; [4]) was 10. For the same compound, the “Plant response rating, Oat, Wild” value (wild oat; [5]) was 20, the “Rice plant response rating” value (rice; [8]) was 50 and the “Sedge, Umbrella plant response rating” value [2, 8] was 90. For the same compound, the “Ducksalad plant response rating” value (ducksalad; [8]) was 60 and the “Barnyardgrass plant response rating” value (barnyardgrass [3]; [8]) was 30.
`CCOC(=O)c1ccc(F)c(NC(=O)c2cc(C(C)C)nn2CC)c1` [Compound 73] was tested, and the “Barnyardgrass plant response rating” value (barnyardgrass [1]; [9]) was 10, the “Barnyardgrass plant response rating” value (barnyardgrass [1]; [10]) was 0 and the “Surinam Grass plant response rating” value (Surinam grass; [9]) was 10. For the same compound, the “Surinam Grass plant response rating” value (Surinam grass; [10]) was 10, the “Cocklebur plant response rating” value (cocklebur; [9]) was 20 and the “Cocklebur plant response rating” value (cocklebur; [10]) was 20. The “Corn plant response rating” value (corn; [9]) was 30, the “Corn plant response rating” value (corn; [10]) was 0 and the “Crabgrass, Large plant response rating” value (large crabgrass; [9]) was 10. For the same compound, the “Crabgrass, Large plant response rating” value (large crabgrass; [10]) was 0, the “Foxtail, Giant plant response rating” value (giant foxtail; [9]) was 30 and the “Foxtail, Giant plant response rating” value (giant foxtail; [10]) was 10. The “Lambsquarters plant response rating” value (lambsquarters; [9]) was 10, the “Lambsquarters plant response rating” value (lambsquarters; [10]) was 0 and the “Morningglory plant response rating” value (morningglory; [9]) was 10. For the same compound, the “Morningglory plant response rating” value (morningglory; [10]) was 10, the “Pigweed plant response rating” value (pigweed; [9]) was 20 and the “Pigweed plant response rating” value (pigweed; [10]) was 10. For the same compound, the “Velvetleaf plant response rating” value (velvetleaf; [9]) was 50, the “Velvetleaf plant response rating” value (velvetleaf; [10]) was 30 and the “Blackgrass plant response rating” value (blackgrass; [9]) was 30. For the same compound, the “Blackgrass plant response rating” value (blackgrass; [10]) was 30, the “Wheat plant response rating” value (wheat; 250 g ai/ha, scale 0 to 100, 0 no effect, 100 complete control, preemergence) was 20 and the “Wheat plant response rating” value (wheat; [9]) was 30. For the same compound, the “Wheat plant response rating” value (wheat; [10]) was 20, the “Oat, Wild plant response rating” value (wild oat; [9]) was 40 and the “Oat, Wild plant response rating” value (wild oat; [10]) was 20. The “Rice plant response rating” value (rice; [8]) was 50, the “Sedge, Umbrella plant response rating” value [2, 8] was 80 and the “Ducksalad plant response rating” value (ducksalad; [8]) was 10. The “Barnyardgrass plant response rating” value (barnyardgrass [3]; [8]) was 30.
`CC(C)(C)n1nc(Br)c(C(=O)Nc2cccc(C(=O)NC3CC3)c2)n1` [Compound 435] was tested, and the “Barnyardgrass plant response rating” value (barnyardgrass [1]; [4]) was 10, the “Barnyardgrass plant response rating” value (barnyardgrass [1]; [11]) was 10 and the “Surinam Grass plant response rating” value (Surinam grass; [11]) was 30. For the same compound, the “Surinam Grass plant response rating” value (Surinam grass; [12]) was 20, the “Cocklebur plant response rating” value (cocklebur; [11]) was 20 and the “Cocklebur plant response rating” value (cocklebur; [12]) was 20. The “Corn plant response rating” value (corn; [11]) was 30, the “Corn plant response rating” value (corn; [12]) was 20 and the “Crabgrass, Large plant response rating” value (large crabgrass; [11]) was 30. For the same compound, the “Crabgrass, Large plant response rating” value (large crabgrass; [12]) was 10, the “Foxtail, Giant plant response rating” value (giant foxtail; [11]) was 30 and the “Foxtail, Giant plant response rating” value (giant foxtail; [12]) was 20. The “Lambsquarters plant response rating” value (lambsquarters; [11]) was 60, the “Lambsquarters plant response rating” value (lambsquarters; [12]) was 50 and the “Morningglory plant response rating” value (morningglory; [11]) was 90. For the same compound, the “Morningglory plant response rating” value (morningglory; [12]) was 70, the “Pigweed plant response rating” value (pigweed; [11]) was 60 and the “Pigweed plant response rating” value (pigweed; [12]) was 40. The “Velvetleaf plant response rating” value (velvetleaf; [11]) was 20, the “Velvetleaf plant response rating” value (velvetleaf; [12]) was 10 and the “Blackgrass plant response rating” value (blackgrass; [11]) was 30. The “Blackgrass plant response rating” value (blackgrass; [12]) was 20, the “Wheat plant response rating” value (wheat; [13]) was 10 and the “Wheat plant response rating” value (wheat; [11]) was 60. For the same compound, the “Wheat plant response rating” value (wheat; [12]) was 20, the “Oat, Wild plant response rating” value (wild oat; [11]) was 60 and the “Oat, Wild plant response rating” value (wild oat; [12]) was 50. The “Rice plant response rating” value (rice; 125 g ai/ha) was 0, the “Sedge, Umbrella plant response rating” value ([2]; 125 g ai/ha) was 0 and the “Ducksalad plant response rating” value (ducksalad; 125 g ai/ha) was 0. For the same compound, the “Barnyardgrass plant response rating” value (barnyardgrass [3]; 125 g ai/ha) was 0.
With `CCOC(=O)c1cccc(NC(=O)c2nn(C(C)(C)C)nc2Br)c1` [Compound 432] the “Plant response rating (0 to 100 scale), Barnyardgrass” value (barnyardgrass [1]; [14]) was 10, the “Barnyardgrass plant response rating” value (barnyardgrass [1]; [4]) was 20 and the “Barnyardgrass plant response rating” value (barnyardgrass [1]; [11]) was 60. The “Plant response rating (0 to 100 scale), Surinam Grass” value (Surinam grass; [14]) was 10, the “Surinam Grass plant response rating” value (Surinam grass; [11]) was 70 and the “Surinam Grass plant response rating” value (Surinam grass; [12]) was 10. The “Plant response rating (0 to 100 scale), Cocklebur” value (cocklebur; [14]) was 0, the “Cocklebur plant response rating” value (cocklebur; [11]) was 70 and the “Cocklebur plant response rating” value (cocklebur; [12]) was 40. For the same compound, the “Plant response rating (0 to 100 scale), Corn” value (corn; [14]) was 0, the “Corn plant response rating” value (corn; [11]) was 30 and the “Corn plant response rating” value (corn; [12]) was 30. For the same compound, the “Plant response rating (0 to 100 scale), Crabgrass, Large” value (large crabgrass; [14]) was 30, the “Crabgrass, Large plant response rating” value (large crabgrass; [11]) was 30 and the “Crabgrass, Large plant response rating” value (large crabgrass; [12]) was 10. For the same compound, the “Plant response rating (0 to 100 scale), Foxtail, Giant” value (giant foxtail; [14]) was 40, the “Foxtail, Giant plant response rating” value (giant foxtail; [11]) was 40 and the “Foxtail, Giant plant response rating” value (giant foxtail; [12]) was 0. The “Plant response rating (0 to 100 scale), Lambsquarters” value (lambsquarters; [14]) was 0, the “Lambsquarters plant response rating” value (lambsquarters; [11]) was 30 and the “Lambsquarters plant response rating” value (lambsquarters; [12]) was 0. For the same compound, the “Plant response rating (0 to 100 scale), Morningglory” value (morningglory; [14]) was 0, the “Morningglory plant response rating” value (morningglory; [11]) was 30 and the “Morningglory plant response rating” value (morningglory; [12]) was 20. The “Plant response rating (0 to 100 scale), Pigweed” value (pigweed; [14]) was 0, the “Pigweed plant response rating” value (pigweed; [11]) was 10 and the “Pigweed plant response rating” value (pigweed; [12]) was 0. The “Plant response rating (0 to 100 scale), Velvetleaf” value (velvetleaf; [14]) was 0, the “Velvetleaf plant response rating” value (velvetleaf; [11]) was 60 and the “Velvetleaf plant response rating” value (velvetleaf; [12]) was 50. The “Blackgrass plant response rating” value (blackgrass; [11]) was 40, the “Blackgrass plant response rating” value (blackgrass; [12]) was 40 and the “Wheat plant response rating” value (wheat; [13]) was 0. For the same compound, the “Wheat plant response rating” value (wheat; [11]) was 60, the “Wheat plant response rating” value (wheat; [12]) was 50 and the “Oat, Wild plant response rating” value (wild oat; [11]) was 60. For the same compound, the “Oat, Wild plant response rating” value (wild oat; [12]) was 50, the “Rice plant response rating” value (rice; 125 g ai/ha) was 0 and the “Sedge, Umbrella plant response rating” value ([2]; 125 g ai/ha) was 80. For the same compound, the “Ducksalad plant response rating” value (ducksalad; 125 g ai/ha) was 30 and the “Barnyardgrass plant response rating” value (barnyardgrass [3]; 125 g ai/ha) was 30.

Source: US20060069132A1, “Azolecarboxamide herbicides” (priority 2004, published 2006)
